Results taken from the NIST ThermoML archive (doi:10.1021/je201014c).
± gives the expanded uncertainty stated by the source.

Assay: mn = molality of the nth substance listed, in mol/kg
Conditions: 100 kPa, Liquid, Alternating current cell with electrodes

CCCCn1cc[n+](C)c1.F[B-](F)(F)F [1-butyl-3-methylimidazolium tetrafluoroborate] + CN(C)C=O
Conditions | molar conductivity [S·m2/mol]
283.15 K, m1 = 5.542e-05 | 0.007204 ± 2e-05
283.15 K, m1 = 0.0002915 | 0.00709 ± 2e-05
283.15 K, m1 = 0.0004895 | 0.007031 ± 2e-05
283.15 K, m1 = 0.0006942 | 0.006981 ± 2e-05
283.15 K, m1 = 0.001153 | 0.006893 ± 2e-05
283.15 K, m1 = 0.001938 | 0.006777 ± 2e-05
283.15 K, m1 = 0.002927 | 0.006662 ± 2e-05
283.15 K, m1 = 0.003888 | 0.00657 ± 2e-05
283.15 K, m1 = 0.005903 | 0.006415 ± 2e-05
283.15 K, m1 = 0.008004 | 0.006288 ± 2e-05
283.15 K, m1 = 0.009964 | 0.006189 ± 2e-05
283.15 K, m1 = 0.012 | 0.0061 ± 2e-05
283.15 K, m1 = 0.01485 | 0.00599 ± 2e-05
288.15 K, m1 = 0.0001289 | 0.007713 ± 2e-05
288.15 K, m1 = 0.0002628 | 0.007644 ± 2e-05
288.15 K, m1 = 0.000427 | 0.007581 ± 2e-05
288.15 K, m1 = 0.0006069 | 0.007526 ± 2e-05
288.15 K, m1 = 0.001022 | 0.007427 ± 2e-05
288.15 K, m1 = 0.001697 | 0.007306 ± 2e-05
288.15 K, m1 = 0.002546 | 0.007188 ± 2e-05
288.15 K, m1 = 0.003454 | 0.007086 ± 2e-05
288.15 K, m1 = 0.005179 | 0.006929 ± 2e-05
288.15 K, m1 = 0.007043 | 0.006794 ± 2e-05
288.15 K, m1 = 0.008772 | 0.006689 ± 2e-05
288.15 K, m1 = 0.01186 | 0.006533 ± 2e-05
288.15 K, m1 = 0.01492 | 0.006408 ± 2e-05
293.15 K, m1 = 0.000111 | 0.00828 ± 2e-05
293.15 K, m1 = 0.0002943 | 0.008172 ± 2e-05
293.15 K, m1 = 0.0004483 | 0.008108 ± 2e-05
293.15 K, m1 = 0.000694 | 0.008027 ± 2e-05
293.15 K, m1 = 0.001218 | 0.007899 ± 2e-05
293.15 K, m1 = 0.001996 | 0.007759 ± 2e-05
293.15 K, m1 = 0.002935 | 0.007628 ± 2e-05
293.15 K, m1 = 0.003937 | 0.007515 ± 2e-05
293.15 K, m1 = 0.005916 | 0.007336 ± 2e-05
293.15 K, m1 = 0.007933 | 0.00719 ± 2e-05
293.15 K, m1 = 0.01009 | 0.007059 ± 2e-05
293.15 K, m1 = 0.01201 | 0.00696 ± 2e-05
293.15 K, m1 = 0.01495 | 0.006833 ± 2e-05
298.15 K, m1 = 0.0001246 | 0.008822 ± 2e-05
298.15 K, m1 = 0.0003199 | 0.0087 ± 2e-05
298.15 K, m1 = 0.000527 | 0.008612 ± 2e-05
298.15 K, m1 = 0.000691 | 0.008555 ± 2e-05
298.15 K, m1 = 0.001175 | 0.008424 ± 2e-05
298.15 K, m1 = 0.001926 | 0.008273 ± 2e-05
298.15 K, m1 = 0.002929 | 0.008121 ± 2e-05
298.15 K, m1 = 0.003956 | 0.007996 ± 2e-05
298.15 K, m1 = 0.005953 | 0.007802 ± 2e-05
298.15 K, m1 = 0.008044 | 0.00764 ± 2e-05
298.15 K, m1 = 0.009999 | 0.007512 ± 2e-05
298.15 K, m1 = 0.01205 | 0.007397 ± 2e-05
298.15 K, m1 = 0.0149 | 0.007265 ± 2e-05
303.15 K, m1 = 0.0001037 | 0.00939 ± 2e-05
303.15 K, m1 = 0.0002814 | 0.009262 ± 2e-05
303.15 K, m1 = 0.000494 | 0.00916 ± 2e-05
303.15 K, m1 = 0.0007407 | 0.009069 ± 2e-05
303.15 K, m1 = 0.001192 | 0.00894 ± 2e-05
303.15 K, m1 = 0.001886 | 0.00879 ± 2e-05
303.15 K, m1 = 0.002913 | 0.008621 ± 2e-05
303.15 K, m1 = 0.003912 | 0.008489 ± 2e-05
303.15 K, m1 = 0.006107 | 0.008261 ± 2e-05
303.15 K, m1 = 0.007974 | 0.008107 ± 2e-05
303.15 K, m1 = 0.009993 | 0.007966 ± 2e-05
303.15 K, m1 = 0.01195 | 0.007849 ± 2e-05
303.15 K, m1 = 0.01492 | 0.007699 ± 2e-05
308.15 K, m1 = 5.763e-05 | 0.009991 ± 2e-05
308.15 K, m1 = 0.0002447 | 0.009826 ± 2e-05
308.15 K, m1 = 0.0004495 | 0.009716 ± 2e-05
308.15 K, m1 = 0.0006821 | 0.009621 ± 2e-05
308.15 K, m1 = 0.001183 | 0.009467 ± 2e-05
308.15 K, m1 = 0.001933 | 0.009295 ± 2e-05
308.15 K, m1 = 0.002911 | 0.009124 ± 2e-05
308.15 K, m1 = 0.003919 | 0.008981 ± 2e-05
308.15 K, m1 = 0.005927 | 0.008756 ± 2e-05
308.15 K, m1 = 0.008008 | 0.008573 ± 2e-05
308.15 K, m1 = 0.009997 | 0.008426 ± 2e-05
308.15 K, m1 = 0.01201 | 0.008298 ± 2e-05
308.15 K, m1 = 0.0149 | 0.00814 ± 2e-05
313.15 K, m1 = 9.063e-05 | 0.0105 ± 2e-05
313.15 K, m1 = 0.0002952 | 0.01034 ± 2e-05
313.15 K, m1 = 0.0004868 | 0.01024 ± 2e-05
313.15 K, m1 = 0.0007015 | 0.01015 ± 2e-05
313.15 K, m1 = 0.001177 | 0.009997 ± 2e-05
313.15 K, m1 = 0.001951 | 0.009811 ± 2e-05
313.15 K, m1 = 0.002946 | 0.009626 ± 2e-05
313.15 K, m1 = 0.003906 | 0.009482 ± 2e-05
313.15 K, m1 = 0.005912 | 0.009242 ± 2e-05
313.15 K, m1 = 0.007925 | 0.009053 ± 2e-05
313.15 K, m1 = 0.00996 | 0.008895 ± 2e-05
313.15 K, m1 = 0.01199 | 0.008759 ± 2e-05
313.15 K, m1 = 0.01511 | 0.008574 ± 2e-05
318.15 K, m1 = 9.401e-05 | 0.01103 ± 2e-05
318.15 K, m1 = 0.0002791 | 0.01089 ± 2e-05
318.15 K, m1 = 0.0004526 | 0.01079 ± 2e-05
318.15 K, m1 = 0.0006468 | 0.01071 ± 2e-05
318.15 K, m1 = 0.001144 | 0.01054 ± 2e-05
318.15 K, m1 = 0.001896 | 0.01035 ± 2e-05
318.15 K, m1 = 0.0029 | 0.01015 ± 2e-05
318.15 K, m1 = 0.003892 | 0.009988 ± 2e-05
318.15 K, m1 = 0.005917 | 0.00973 ± 2e-05
318.15 K, m1 = 0.00798 | 0.009527 ± 2e-05
318.15 K, m1 = 0.009945 | 0.009368 ± 2e-05
318.15 K, m1 = 0.01195 | 0.009227 ± 2e-05
318.15 K, m1 = 0.01488 | 0.009038 ± 2e-05
